# Experimental data from patent EP4800015A1, “AZABICYCLO DERIVATIVE AND PREPARATION METHOD THEREFOR, AND USE” (Zhejiang Hisun Pharmaceutical Co., Ltd., priority 2023, dated 2025).
# pIC50: −log10 of the molar value.
# Tests used:
# SW48 cells = test: Inhibition of SW48 cell proliferation (CellTiter-Glo); format: cell-based; conditions: Homo sapiens; SW48 cells (MSI-H), 120 hours
# Method: (§1) The following method was used to determine the effect of the compounds of the present disclosure on SW48 cell proliferation. SW48 cells (MSI-H cells) were purchased from American ATCC cell bank and cultured in Leibovitz's L-15 medium (Gibco, catalog No. 11415064) containing 10% fetal bovine serum, 100 U penicillin, and 100 µg/mL streptomycin. Cell viability was determined by CellTiter-Glo® Luminescent Cell Viability Assay kit (Promega, catalog No. G7573).
# (§2) The experiment was performed according to the steps of the kit manual, which is briefly described as follows: test compounds were first dissolved in DMSO to prepare 10 mM stock solutions, and then diluted with medium to prepare test samples, with final compound concentrations ranging from 10000 nM to 1.52 nM. Cells in logarithmic growth phase were seeded into 96-well cell culture plates at a density of 500 cells per well and cultured overnight at 37 °C in an air incubator, then test compounds were added and cultivation continued for 120 hours. After the cultivation was completed, 40 µL of CellTiter-Glo detection reagent was added to each well, shaken for 5 minutes, and then left to stand for 10 minutes. Luminescence values of each well were read on a microplate reader using Luminescence mode. The percentage inhibition at each concentration point was calculated by comparison with the control group (0.1% DMSO), and then IC50 values for the compounds for inhibition of cell proliferation were obtained using nonlinear regression analysis of compound concentration logarithm versus inhibition rate in GraphPad Prism 9 software, as shown in Table 2.
# The IC50 value results of the compounds of the present disclosure are represented by A, wherein "A" indicates 1 nM < IC50 ≤ 100 nM. Table 2 IC50 data for inhibition of SW48 cell proliferation by the compounds of the present disclosure
# recombinant human WRN = target: T1, recombinant human WRN (Homo sapiens, UniProt Q14191); test: Inhibition of WRN enzyme activity (ATPase), ADP-Glo Kinase Assay; format: biochemical; conditions: WRN protein 5 nM, Flap 0.1 nM, ATP 30 µM; read-out: IC50
# T1 construct: purchased BPS 101264
# Procedure, shortened: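 Recombinant human WRN (5 nM) was preincubated with compound (1000–0.004 nM) for 15 min at room temperature. Flap26 5'-flap DNA (0.1 nM) and 30 µM ATP were then added for 10 min in Tris pH 7.5, MgCl2, NaCl, BSA, Pluronic buffer. ADP was detected by ADP-Glo luminescence, and IC50 was obtained by nonlinear regression versus a 0.1% DMSO control.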
# RL95-2 cells = test: Inhibition of RL95-2 cell proliferation (CellTiter-Glo); format: cell-based; conditions: Homo sapiens; RL95-2 cells (MSI-H), 120 hours
# Method: as §1, with “RL95-2” for “SW48”, “Cell Resource Center of Shanghai Institutes for Biological Sciences, Chinese Academy of Sciences,” for “American ATCC cell bank”, “DMEM/F12” for “Leibovitz's L-15”, “A4192001)” for “11415064)”
# as §2, with “a 5% CO2” for “an air”, “incubator, and” for “incubator,”, “50” for “40”, “3.” for “2.”
# The IC50 value results of the compounds of the present disclosure are represented by A, wherein "A" indicates 1 nM < IC50 ≤ 100 nM. Table 3 IC50 data for inhibition of RL95-2 cell proliferation by the compounds of the present disclosure
# T1 sequence (Q14191 whole entry): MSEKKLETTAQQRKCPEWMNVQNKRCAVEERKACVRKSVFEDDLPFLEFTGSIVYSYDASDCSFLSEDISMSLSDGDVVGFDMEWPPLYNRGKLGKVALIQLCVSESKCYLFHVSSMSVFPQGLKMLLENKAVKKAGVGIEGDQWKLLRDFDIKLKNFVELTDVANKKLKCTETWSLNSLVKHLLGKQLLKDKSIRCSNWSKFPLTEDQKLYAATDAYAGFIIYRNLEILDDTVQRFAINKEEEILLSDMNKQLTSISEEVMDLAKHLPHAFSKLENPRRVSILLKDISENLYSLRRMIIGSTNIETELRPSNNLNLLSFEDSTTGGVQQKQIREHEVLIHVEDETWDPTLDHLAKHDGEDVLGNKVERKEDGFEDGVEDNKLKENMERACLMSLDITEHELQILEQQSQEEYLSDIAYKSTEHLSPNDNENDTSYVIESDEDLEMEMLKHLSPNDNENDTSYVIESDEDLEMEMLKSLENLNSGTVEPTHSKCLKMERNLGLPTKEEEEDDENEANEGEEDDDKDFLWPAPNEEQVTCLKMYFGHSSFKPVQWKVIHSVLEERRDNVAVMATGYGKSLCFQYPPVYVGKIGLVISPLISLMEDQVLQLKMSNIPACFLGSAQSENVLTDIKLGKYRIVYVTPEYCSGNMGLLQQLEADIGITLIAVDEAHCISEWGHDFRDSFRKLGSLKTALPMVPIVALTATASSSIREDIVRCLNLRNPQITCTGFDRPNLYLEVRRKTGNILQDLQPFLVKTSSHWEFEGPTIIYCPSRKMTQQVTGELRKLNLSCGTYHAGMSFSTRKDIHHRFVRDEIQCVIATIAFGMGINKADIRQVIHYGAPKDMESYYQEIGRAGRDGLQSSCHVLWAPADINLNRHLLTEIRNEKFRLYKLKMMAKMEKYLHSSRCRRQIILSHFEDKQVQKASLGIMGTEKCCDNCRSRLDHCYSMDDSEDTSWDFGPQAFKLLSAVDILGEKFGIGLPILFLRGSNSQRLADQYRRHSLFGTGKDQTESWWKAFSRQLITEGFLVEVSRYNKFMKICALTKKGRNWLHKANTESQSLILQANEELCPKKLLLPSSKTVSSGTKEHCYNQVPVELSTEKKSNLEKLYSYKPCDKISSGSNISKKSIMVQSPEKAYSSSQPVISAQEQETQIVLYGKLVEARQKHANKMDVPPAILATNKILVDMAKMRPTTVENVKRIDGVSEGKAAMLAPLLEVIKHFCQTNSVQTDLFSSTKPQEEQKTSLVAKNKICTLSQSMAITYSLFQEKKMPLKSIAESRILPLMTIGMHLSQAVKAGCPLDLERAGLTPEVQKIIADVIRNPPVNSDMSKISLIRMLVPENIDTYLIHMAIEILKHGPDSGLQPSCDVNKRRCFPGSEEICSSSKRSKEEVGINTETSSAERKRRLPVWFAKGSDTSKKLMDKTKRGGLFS
pIC50 (SW48 cells),pIC50 (recombinant human WRN),Compound,pIC50 (RL95-2 cells)
7.00 to 9.00,7.00 to 9.00,"CCc1c(N2CCN(C(=O)c3ncnc(C)c3O)CC2)c(=O)n2nc(C3=CCC4(CC3)COC4)nc2n1CC(=O)Nc1ccc(S(F)(F)(F)(F)F)cc1 [Example 176, 2-(5-ethyl-6-(4-(5-hydroxy-6-methylpyrimidine-4-carbonyl)piperazin-1-yl)-7-oxo-2-(2-oxaspiro[3.5]non-6-en-7-yl)-[1,2,4]triazolo[1,5-a]pyrimidin-4(7H)-yl)-N-(4-(pentafluoro-λ^6-sulfaneyl)phenyl)acetamide]",
7.00 to 9.00,7.00 to 9.00,"[2H]c1cc2cc(-c3nc4n(CC(=O)Nc5ccc(C(F)(F)F)cc5Cl)c(CC)c(N5CCN(C(=O)c6ncnc(C)c6O)CC5)c(=O)n4n3)ccc2s1 [Example 169, 2-(2-(benzo[b]thiophen-5-yl-2-d)-5-ethyl-6-(4-(5-hydroxy-6-methylpyrimidine-4-carbonyl)piperazin-1-yl)-7-oxo-[1,2,4]triazolo[1,5-a]pyrimidin-4(7H)-yl)-N-(2-chloro-4-(trifluoromethyl)phenyl) acetamide]",
7.00 to 9.00,7.00 to 9.00,"CCc1c(N2CCN(C(=O)c3ncnc(C)c3O)CC2)c(=O)n2nc(C3=CCC4(CC3)COC4)nc2n1CC(=O)Nc1ccc(S(F)(F)(F)(F)F)cc1Cl [Example 175, N-(2-chloro-4-(pentafluoro-λ6-sulfaneyl)phenyl)-2-(5-ethyl-6-(4-(5-hydroxy-6-methylpyrimidine-4-carbonyl)piperazin-1-yl)-7-oxo-2-(2-oxaspiro[3.5]non-6-en-7-yl)-[1,2,4]triazolo[1,5-a]pyrimidin-4(7H)-yl)acetamide]",
7.00 to 9.00,7.00 to 9.00,"CCc1c(N2CCN(C(=O)c3ncnc(C)c3O)CC2)c(=O)n2nc(C3=CCC4(CC3)CC4)nc2n1CC(=O)Nc1ccc(S(F)(F)(F)(F)F)cc1Cl [Example 174, N-(2-chloro-4-(pentafluoro-λ^6-sulfaneyl)phenyl)-2-(5-ethyl-6-(4-(5-hydroxy-6-methylpyrimidine-4-carbonyl)piperazin-1-yl)-7-oxo-2-(spiro[2.5]oct-5-en-6-yl)-[1,2,4]triazolo[1,5-a]pyrimidin-4(7 H)-yl)acetamide]",
7.00 to 9.00,7.00 to 9.00,"[2H]c1sc2ccc(-c3nc4n(CC(=O)Nc5ccc(C(F)(F)F)cc5Cl)c(CC)c(N5CCN(C(=O)c6ncnc(C)c6O)CC5)c(=O)n4n3)cc2c1[2H] [Example 170, 2-(2-(benzo[b]thiophen-5-yl-2,3-d2)-5-ethyl-6-(4-(5-hydroxy-6-methylpyrimidine-4-carbonyl)piperazin-1-yl)-7-oxo-[1,2,4]triazolo9[1,5-a]pyrimidin-4(7H)-yl)-N-(2-chloro-4-(trifluoromethyl)phenyl)acetamide]",

# More lines, now with the values behind:
Compound,pIC50 (SW48 cells),pIC50 (recombinant human WRN),pIC50 (RL95-2 cells)
"CCc1c(N2CCN(C(=O)c3nc(C)ccc3O)CC2)c(=O)n2nc(-c3ccc4c(c3)CCO4)nc2n1CC(=O)Nc1ccc(C(F)(F)F)cc1Cl [Example 105, N-(2-chloro-4-(trifluoromethyl)phenyl)-2-(2-(2,3-dihydrobenzofuran-5-yl)-5-ethyl-6-(4-(3-hydroxy-6-methylpicolinoyl)piperazin-1-yl)-7-oxo-[1,2,4]triazolo[1,5-a]pyrimidin-4(7H)-yl)a cetamide]",7.00 to 9.00,7.00 to 9.00,
"CCc1c(N2CCN(C(=O)c3ncncc3O)CC2)c(=O)n2nc(-c3ccc4c(c3)CCO4)nc2n1CC(=O)Nc1ccc(C(F)(F)F)cc1Cl [Example 151, N-(2-chloro-4-(trifluoromethyl)phenyl)-2-(2-(2,3-dihydrobenzofuran-5-yl)-5-ethyl-6-(4-(5-hydroxypyrimidine-4-carbonyl)piperazin-1-yl)-7-oxo-[1,2,4]triazolo[1,5-a]pyrimidin-4(7H)-yl)acetamide]",7.00 to 9.00,7.00 to 9.00,
"Cc1ncnc(C(=O)N2CCN(c3c(C4CCC4)n(CC(=O)Nc4ccc(C(F)(F)F)cc4Cl)c4nc(-c5ccc6c(c5)CCO6)nn4c3=O)CC2)c1O [Example 155, N-(2-chloro-4-(trifluoromethyl)phenyl)-2-(5-cyclobutyl-2-(2,3-dihydrobenzofuran-5-yl)-6-(4-(5-hydroxy-6-methylpyrimidine-4-carbonyl)piperazin-1-yl)-7-oxo-[1,2,4]triazolo[1,5-a]pyrimidin-4(7H)-yl)acetamide]",7.00 to 9.00,7.00 to 9.00,
"CCc1c(N2CCN(C(=O)c3ncccc3O)CC2)c(=O)n2nc(C=C3CCC3)nc2n1CC(=O)Nc1ccc(S(F)(F)(F)(F)F)cc1 [Example 52, 2-(2-(cyclobutylidenemethyl)-5-ethyl-6-(4-(3-hydroxypicolinoyl)piperazin-1-yl)-7-oxo-[1,2,4]triazolo[1,5-a]pyrimidin-4(7H)-yl)-N-(4-(pentafluoro-λ^6-sulfaneyl)phenyl)acetamide]",7.00 to 9.00,> 9.00,
"CCc1c(N2CCN(C(=O)c3ncnc(C)c3O)CC2)c(=O)n2nc(-c3ccc4c(c3)CCO4)nc2n1CC(=O)Nc1ccc(S(F)(F)(F)(F)F)cc1Cl [Example 87, N-(2-chloro-4-(pentafluoro-λ^6-sulfaneyl)phenyl)-2-(2-(2,3-dihydrobenzofuran-5-yl)-5-ethyl-6-(4-(5-hydroxy-6-methylpyrimidine-4-carbonyl)piperazin-1-yl)-7-oxo-[1,2,4]triazolo[1,5-a]pyrimidin-4(7H)-yl)acetamide]",7.00 to 9.00,7.00 to 9.00,
"CCc1c(N2CCN(C(=O)c3ncccc3O)CC2)c(=O)n2nc(-c3ccc4c(c3)CCO4)nc2n1CC(=O)Nc1ccc(C(F)(F)F)cc1Cl [Example 104, N-(2-chloro-4-(trifluoromethyl)phenyl)-2-(2-(2,3-dihydrobenzofuran-5-yl)-5-ethyl-6-(4-(3-hydroxypicolinoyl)piperazin-1-yl)-7-oxo-[1,2,4]triazolo[1,5-a]pyrimidin-4(7H)-yl)acetamide]",7.00 to 9.00,7.00 to 9.00,
"CCc1c(N2CCN(C(=O)c3ncnc(C)c3O)CC2)c(=O)n2nc(-c3cc4ccccc4o3)nc2n1CC(=O)Nc1ccc(S(F)(F)(F)(F)F)cc1 [Example 96, 2-(2-(benzofuran-2-yl)-5-ethyl-6-(4-(5-hydroxy-6-methylpyrimidine-4-carbonyl)piperazin-1-yl)-7-oxo-[1,2,4]triazolo[1,5-a]pyrimidin-4(7H)-yl)-N-(4-(pentafluoro-λ^6-sulfaneyl)phenyl)acetamide]",7.00 to 9.00,7.00 to 9.00,
"CCc1c(N2CCN(C(=O)c3ncnc(C)c3O)CC2)c(=O)n2nc(C3=CC4CC4C3)nc2n1CC(=O)Nc1ccc(S(F)(F)(F)(F)F)cc1Cl (stereo not shown) [Example 167, 2-(2-(bicyclo[3.1.0]hex-2-en-3-yl)-5-ethyl-6-(4-(5-hydroxy-6-methylpyrimidine-4-carbonyl)piperazin-1-yl)-7-oxo-[1,2,4]triazolo[1,5-a]pyrimidin-4(7H)-yl)-N-(2-chloro-4-(pentafluoro-λ^6-sulfaneyl)phenyl)acetamide]",,7.00 to 9.00,7.00 to 9.00
"CCc1c(N2CCN(C(=O)c3ncnc(C)c3O)CC2)c(=O)n2nc(C=C3CCC3)nc2n1CC(=O)Nc1ccc(C(F)(F)F)cc1Cl [Example 33, N-(2-chloro-4-(trifluoromethyl)phenyl)-2-(2-(cyclobutylidenemethyl)-5-ethyl-6-(4-(5-hydroxy-6-methylpyrimidine-4-carbonyl)piperazin-1-yl)-7-oxo-[1,2,4]triazolo[1,5-a]pyrimidin-4(7H)-yl) acetamide]",7.00 to 9.00,> 9.00,
